Measurements from patent US20120003191A1, “VALPROIC ACID, DERIVATIVES, ANALOGUES, AND COMPOSITIONS INCLUDING SAME AND METHODS FOR THEIR THERAPEUTIC USE” (priority 2009, published 2012).

Tests used:
α7+/− myotubes = assay: Quantification of myotube hypertrophy; type: cell-based, mouse
Protocol: (§1) α7^+/− myogenic cells were cultured on 1% gelatin-coated plastic plates in Ham's F-10 growth medium (20% FBS, 0.5% chick embryo extract, 5 ng/ml bFGF, 2 mM glutamine, 100 U/ml penicillin and 100 μg/ml streptomycin). After six passages, cells were grown in DMEM containing 20% FBS, 0.5% chick embryo extract, 2 mM glutamine, 100 U/ml penicillin and 100 μg/ml streptomycin. Differentiation was induced by switching the medium to DMEM containing 2% horse serum and antibiotics when cells attained 90% confluence. After 48 hours of differentiation, 2 mM VPA was added and supplied fresh every 24 hours. Wortmannin was used at 100 nM and added fresh every 24 hours.
[…] The cells were stained with anti-myosin heavy chain antibody (MF-20, 1:3 in 1% BSA in PBS) and FITC-conjugated donkey anti-mouse secondary antibody (1:200 in 1% BSA in PBS) for 1 hour each, and mounted in Vectashield with DAPI (Vector Laboratories, Burlingame, Calif.). Micrographs of ten fields were taken for VPA-treated and control myotubes using a Leica DMRXA2 microscope (Leica Microsystems, Germany), AxioCam digital camera (Zeiss Inc., Thorwood, N.Y.) and Openlab software (Improvision, Lexington, Mass.). Areas of myosin heavy chain positive myotubes were measured using Openlab software and the numbers of nuclei in each myotube were counted.
(§2) To test whether Akt activation by VPA in α7^+/− myotubes is dependent on PI3K, α7^+/− cells were differentiated for 48 hours and treated for 72 hours with 2 mM VPA with or without 100 nM Wortmannin. Fresh drugs were added every 24 hours. Phase-contrast micrographs of the cultures were captured at the end of 72 hours of treatment. To determine status of Akt activation in the cultures, α7^+/− myotubes were treated as above and protein extracts were made at the end of 72 hours of treatment using a 2% Triton X-100 extraction buffer (see below). Immunoblotting for phospho- and total Akt were done as detailed below.

mdx/utrn−/− mice = assay: Masson's trichrome staining of quadriceps cryosections; type: in vivo, mouse; details: 240 mg/kg i.p. twice daily for 5 weeks
Protocol: (§3) mdx/utrn−/− mice lack both dystrophin and utrophin, and were bred and genotyped as reported in Burkin, et al., Enhanced expression of the alpha 7 beta 1 integrin reduces muscular dystrophy and restores viability in dystrophic mice, J. Cell Biol. 152:1207-18 (2001). 240 mg/kg body weight of VPA was injected intraperitoneally twice daily into mdx/utrn^−/− mice (n=9) starting at 3 weeks of age, for a period of 5 weeks. Control mice were injected with saline (n=9). Body-weights were determined daily. Masson's trichrome staining kit (American MasterTech Scientific Inc., Lodi, Calif.) was used to stain 8 μm muscle cryosections, as per the manufacturer's instructions.

[1] = humans; cited from earlier work
Akt = assay: Western blotting of activated and total Akt in α7+/− myotubes; type: cell-based, mouse
Protocol: as §1, with “After 48 hours of differentiation, 2 mM VPA was added and supplied fresh every 24 hours.” left out
as §2
Cell lysates of differentiating cells on 60 mm dishes were prepared as follows: the cells were washed twice with PBS and 200 μl Triton X-100 lysis buffer (2% Triton X-100, 20 mM Tris-Cl, pH 7.4, 150 mM NaCl, 1 mM EDTA, 1 mM EGTA, 2.5 mM NaPPi, 1 mM β-glycerophosphate, 1 mM sodium vanadate, 1:200 Protease Inhibitor Cocktail (EMD Chemicals, San Diego, Calif.) and 1 mM PMSF) were added. The cells were scraped and transferred into Eppendorf tubes, the cell suspensions were triturated and centrifuged at 8000×g at 4° C. for 10 minutes, and the supernatants were collected. Lysates from mouse skeletal muscle were prepared as follows: the quadriceps muscles were dissected out, snap-frozen in liquid nitrogen and pulverized using a mortar and pestle. The powdered muscles were collected in Eppendorf tubes, 500 μl of Triton X-100 lysis buffer were added, rotated at 4° C. for 30 minutes, centrifuged at 8000×g for 10 minutes and the supernatants were collected. Protein concentrations were determined by the Bradford assay. SDS extracts of muscle were made by boiling powdered muscle in extraction buffer (100 mM Tris-Cl, pH 8.0, 10% SDS, 10 mM EDTA and 10% glycerol) for 10 minutes, vortexing vigorously, and centrifuging at 8000×g for 10 minutes. The supernatants were collected and protein concentrations were determined spectrophotometrically at OD260 and OD280. SDS-PAGE was carried out using 50 μg of protein for each sample and separated proteins were transferred to nitrocellulose membranes. For western blotting using antibodies against signaling proteins, membranes were blocked in 5% BSA in TBST for 2 hours at room temperature. For all other blots, incubations were done in 5% milk in TBST overnight at 4° C. The membranes were incubated overnight at 4° C. with primary antibodies diluted 1:1000 in 1% BSA in TBST. After washing in 1% BSA in TBST, blots were incubated for 1 hour in HRP-conjugated secondary antibodies diluted 1:5000 in 1% BSA in TBST. Blots were processed using the ECL kit (Amersham Biosciences, Piscataway, N.J.) and bands were visualized with Kodak Biomax MR film (Kodak, Rochester, N.Y.). ImageQuant analysis software (Molecular Dynamics, Sunnyvale, Calif.) was used to quantify band intensity.

type VI collagen = assay: Western blotting of type VI collagen in quadriceps; type: in vivo, mouse; details: 240 mg/kg i.p. twice daily for 5 weeks
Protocol: as §3, with “daily.” for “daily. Masson's trichrome staining kit (American MasterTech Scientific Inc., Lodi, Calif.) was used to stain 8 μm muscle cryosections, as per the manufacturer's instructions.”
Cell lysates of differentiating cells on 60 mm dishes were prepared as follows: the cells were washed twice with PBS and 200 μl Triton X-100 lysis buffer (2% Triton X-100, 20 mM Tris-Cl, pH 7.4, 150 mM NaCl, 1 mM EDTA, 1 mM EGTA, 2.5 mM NaPPi, 1 mM β-glycerophosphate, 1 mM sodium vanadate, 1:200 Protease Inhibitor Cocktail (EMD Chemicals, San Diego, Calif.) and 1 mM PMSF) were added. The cells were scraped and transferred into Eppendorf tubes, the cell suspensions were triturated and centrifuged at 8000×g at 4° C. for 10 minutes, and the supernatants were collected. […] Protein concentrations were determined by the Bradford assay. […] The supernatants were collected and protein concentrations were determined spectrophotometrically at OD260 and OD280. […] ImageQuant analysis software (Molecular Dynamics, Sunnyvale, Calif.) was used to quantify band intensity.

## CCCC(CCC)C(=O)O [VPA, valproic acid]
α7+/− myotubes; 2 mM VPA
  number of nuclei per myotube compared to untreated controls: greater numbers of nuclei per myotube
α7+/− myotubes; 2 mM VPA, 72 hours
  myotube area per nucleus, greater than control: 1.6 fold
  myotube size compared to controls (micrographs): larger compared to controls
α7+/− myotubes; 30 mM VPA for 1 hour, observed 72 hours later
  myotube size compared to controls after 1 hour exposure: larger compared to controls
mdx/utrn−/− mice
  collagen staining in quadriceps compared to controls: lower intensity of collagen staining
[1]
  half life: approximately 14 hours
Akt; 2 mM VPA daily, extracts every 24 hours up to 144 hours
  levels of activated Akt, time course: higher levels of activated Akt at all time-points
Akt; 1 hour exposure
  concentration of maximal Akt activation: 30 mM
Akt; VPA for 48 or 72 hours
  levels of activated Akt: higher levels
Akt; beyond 96 hours
  higher levels of Akt in VPA treated cultures: 2 to 3 fold
Akt; various concentrations of VPA, two-day old differentiating cultures
  time to Akt activation: ≤ 1 h
Type VI collagen
  less type VI collagen in muscle than control mice: approximately 3 fold
